# Assay results as given in patent US20070060558A1 (PALUMED S.A., priority 2004, published 2007).
# Read-outs that look alike come from different tables or passages of the source. Positions of bridges follow the written chain, without caps; N, C: chain ends. Non-standard residues stand in square brackets, D forms with d. Residues, ends and D or L forms follow the SMILES beside them. *: point of attachment. NMePhe(4-NMe2) = CN[C@@H](Cc1ccc(N(C)C)cc1)C(=O)O; Pip(4-oxo) = O=C1CCN[C@H](C(=O)O)C1; Picolinoyl(3-OH) = O=C(c1ncccc1O)*; Phg = N[C@H](C(=O)O)c1ccccc1; dAbu = CC[C@@H](N)C(=O)O
# Tests used:
# [1] = test system: S. pneumoniae PSSP CQI 201; assay: Antibacterial activity (MIC); type: cell-based, Streptococcus pneumoniae
# C. difficile CIP 104282 = assay: Antibacterial activity (MIC); type: cell-based, Clostridium difficile; settings: Clostridioides difficile, CIP104282
# [2] = test system: Staphylococcus aureus MSSA CIP 4.83; assay: Antibacterial activity (MIC/MBC); type: cell-based; settings: for MBC: read-out: MBC
# [3] = test system: S. pneumoniae PSSP CIP 6.92; assay: Antibacterial activity (MIC/MBC); type: cell-based; settings: Streptococcus pneumoniae, CIP6
# [4] = test system: S. pneumoniae PRSP CIP 104471; assay: Antibacterial activity (MIC/MBC); type: cell-based, Streptococcus pneumoniae; settings: Streptococcus pneumoniae; for MIC: read-out: MIC
# [5] = test system: S. pneumoniae PRSP clinical isolate; assay: Antibacterial activity (MIC/MBC); type: cell-based, Streptococcus pneumoniae; settings: Streptococcus pneumoniae; for MIC: PRSP, read-out: MIC
# S. pyogenes CIP 56.41T = assay: Antibacterial activity (MIC/MBC); type: cell-based, Streptococcus pyogenes
# [6] = test system: E. faecalis VRE CIP 104676; assay: Antibacterial activity (MIC/MBC); type: cell-based, Enterococcus faecalis; settings: Enterococcus faecalis, E. faecalis VRE CIP 104676; for MIC: read-out: MIC
# H. influenzae CIP 102514 = assay: Antibacterial activity (MIC/MBC); type: cell-based, Haemophilus influenzae; settings: Haemophilus influenzae, CIP102514
# M. catarrhalis CIP73.21T = assay: Antibacterial activity (MIC/MBC); type: cell-based; settings: Moraxella catarrhalis
# [7] = test system: Staphylococcus aureus MSSA 53.154; assay: Murine experimental septicaemia, in vivo efficacy; set-up: species or system mice; settings: sc
# Method: Experimental septicaemia was induced in mice as follows. Briefly, male Swiss OF1 mice (IFFA CREDO-Charles River) weighing 18 to 20 grams were infected intraperitoneally with 0.5 mL of a bacterial suspension containing 8.5×10^7 cfu of Staphylococcus aureus MSSA 53.154 (Institut Pasteur). The hybrid molecules were administered subcutaneously at 1 and 6 h post infection. Control and treatment groups at each dose were composed of seven mice. All the infected but untreated control mice died within 9 days. The 50% effective dose (ED50) values were calculated by a computerized program (GraphPad) from the survival rates on day 9 after infection.
# [8] = test system: S. aureus MRSA clinical isolate; assay: Antibacterial activity (MIC); type: cell-based, Staphylococcus aureus
# S. aureus MsrA PUL 5054 = assay: Antibacterial activity (MIC); type: cell-based; settings: Staphylococcus aureus
# [9] = test system: S. aureus VISA CIP 106757; assay: Antibacterial activity (MIC); type: cell-based; settings: Staphylococcus aureus
# [10] = test system: S. epidermidis MSCNS (D10); assay: Antibacterial activity (MIC); type: cell-based; settings: Staphylococcus epidermidis
# [11] = test system: S. epidermidis MRCNS (E93); assay: Antibacterial activity (MIC); type: cell-based; settings: Staphylococcus epidermidis
# [12] = test system: S. pneumoniae PRSP (CQR 162); assay: Antibacterial activity (MIC); type: cell-based; settings: Streptococcus pneumoniae
# [13] = test system: E. faecium VRE VanA CIP107387; assay: Antibacterial activity (MIC); type: cell-based; settings: Enterococcus faecium
# [14] = test system: E. faecalis VRE VanA CIP106996; assay: Antibacterial activity (MIC); type: cell-based; settings: Enterococcus faecalis
# [15] = test system: E. faecalis VRE VanB CIP106998; assay: Antibacterial activity (MIC); type: cell-based; settings: Enterococcus faecalis
# S. pneumoniae PRSP = assay: Antibacterial activity (MIC), Table VII; type: cell-based; settings: Streptococcus pneumoniae; S. pneumoniae PRSP (Table VII); read-out: MIC
# E. coli CIP 54127 = assay: Antibacterial activity (MIC); type: cell-based; settings: Escherichia coli, CIP54127; E. coli CIP 54127; read-out: MIC
# P. aeruginosa CIP 103467 = assay: Antibacterial activity (MIC); type: cell-based; settings: Pseudomonas aeruginosa, CIP103467; P. aeruginosa CIP 103467; read-out: MIC
# [16] = test system: B. thuringiensis CIP 104676; assay: Antibacterial activity (MIC); type: cell-based; settings: Bacillus thuringiensis, CIP104676; B. thuringiensis CIP 104676; read-out: MIC
# [17] = Streptococcus pneumoniae, S. pneumoniae PSSP CQI 201, read-out: MIC
# [18] = C. difficile CIP 104282, read-out: MIC
# [19] = Staphylococcus aureus, S. aureus MSSA CIP 4.83
# [20] = Staphylococcus aureus, S. aureus MSSA CIP 4.83, read-out: MIC
# [21] = Streptococcus pyogenes, CIP56, S. pyogenes CIP 56.41T
# [22] = Streptococcus pyogenes, CIP56, S. pyogenes CIP 56.41T, read-out: MIC
# [23] = mice, subcutaneously at 1 and 6 h post infection, survival on day 9, hybrid molecules formulated in water as their sodium salt, read-out: ED50
# [24] = H. influenzae CIP 102514, read-out: MIC
smiles,measurement,setting,value
"CC(=O)NC[C@H]1CN(c2ccc(N3CCOCC3)c(F)c2)C(=O)O1 [Linezolid, reference compound]",MIC,[1]; [17],1.25 µg/mL
same,MIC,C. difficile CIP 104282; [18],0.16 µg/mL
"CC(=O)OCC1=C(C(=O)O)N2C(=O)[C@@H](NC(=O)CNc3ccnc4cc(C(F)(F)F)ccc34)[C@H]2SC1 [PA 1100, (6R,7R)-3-Acetoxymethyl-7-[2-(7-trifluoromethylquinolin-4-ylamino)-acetylamino]-8-oxo-5-thia-1-aza-bicyclo[4.2.0]oct-2-ene-2-carboxylic acid]",MBC,[2]; [19],25 µg/mL
same,MIC,[2]; [20],0.2 µg/mL
same,MBC,[3],0.006 µg/mL
same,MIC,[3],0.006 µg/mL
same,MBC,[4],0.78 µg/mL
same,MIC,[4],0.2 µg/mL
same,MBC,[5],0.39 µg/mL
same,MIC,[5],0.39 µg/mL
same,MBC,S. pyogenes CIP 56.41T; [21],0.003 µg/mL
same,MIC,S. pyogenes CIP 56.41T; [22],0.003 µg/mL
same,MBC,[6],25 µg/mL
same,MIC,[6],12.5 µg/mL
same,MBC,H. influenzae CIP 102514,25 µg/mL
same,MIC,H. influenzae CIP 102514,0.78 µg/mL
same,MBC,M. catarrhalis CIP73.21T,1.56 µg/mL
same,MIC,M. catarrhalis CIP73.21T,0.78 µg/mL
same,ED50,[7]; [23],0.16 mg/kg
"CC(=O)OCC1=C(C(=O)O)N2C(=O)[C@@H](NC(=O)CNc3cc(C)nc4ccccc34)[C@H]2SC1 [PA 1101, (6R,7R-3-Acetoxymethyl-7-[2-2-methylquinolin-4-ylamino)acetylamino]-8-oxo-5-thia-1-aza-bicyclo[4.2.0]oct-2-ene-2-carboxylic acid]",MBC,[2]; [19],25 µg/mL
same,MIC,[2]; [20],0.2 µg/mL
same,MBC,[3],0.006 µg/mL
same,MIC,[3],0.006 µg/mL
same,MBC,[4],0.78 µg/mL
same,MIC,[4],0.2 µg/mL
same,MBC,[5],0.39 µg/mL
same,MIC,[5],0.2 µg/mL
same,MBC,S. pyogenes CIP 56.41T; [21],0.0015 µg/mL
same,MIC,S. pyogenes CIP 56.41T; [22],0.0015 µg/mL
same,MBC,[6],25 µg/mL
same,MIC,[6],25 µg/mL
same,MBC,H. influenzae CIP 102514,12.5 µg/mL
same,MIC,H. influenzae CIP 102514,1.56 µg/mL
same,MBC,M. catarrhalis CIP73.21T,0.78 µg/mL
same,MIC,M. catarrhalis CIP73.21T,0.78 µg/mL
same,ED50,[7]; [23],0.13 mg/kg
CN[C@H](CC(C)C)C(=O)N[C@H]1C(=O)N[C@@H](CC(N)=O)C(=O)N[C@H]2C(=O)N[C@H]3C(=O)N[C@H](C(=O)N[C@H](C(=O)O)c4cc(O)cc(O)c4-c4cc3ccc4O)[C@H](O)c3ccc(c(Cl)c3)Oc3cc2cc(c3OC2OC(CO)C(O)C(O)C2OC2CC(C)(NCCNc3ccnc4cc(Cl)ccc34)C(O)C(C)O2)Oc2ccc(cc2Cl)[C@H]1O (stereo partly drawn) [PA 1159],MIC,[2]; [20],0.2 µg/mL
same,MIC,"[8]; Staphylococcus aureus, S. aureus MRSA clinical isolate, read-out: MIC",0.1 µg/mL
same,MIC,S. aureus MsrA PUL 5054,< 0.045 µg/mL
same,MIC,"[9]; S. aureus VISA CIP 106757, read-out: MIC",0.2 µg/mL
same,MIC,"[10]; S. epidermidis MSCNS (D10), read-out: MIC",0.2 µg/mL
same,MIC,"[11]; S. epidermidis MRCNS (E93), read-out: MIC",0.05 µg/mL
same,MIC,[1]; [17],0.006 µg/mL
same,MIC,"[12]; S. pneumoniae PRSP (CQR 162), read-out: MIC",0.025 µg/mL
same,MIC,S. pyogenes CIP 56.41T; [22],0.125 µg/mL
same,MIC,"[13]; E. faecium VRE VanA CIP107387, read-out: MIC",25 µg/mL
same,MIC,"[14]; E. faecalis VRE VanA CIP106996, read-out: MIC",1.56 µg/mL
same,MIC,"[15]; E. faecalis VRE VanB CIP106998, read-out: MIC",12.5 µg/mL
same,MIC,C. difficile CIP 104282; [18],0.16 µg/mL
same,ED50,"[7]; mice, subcutaneously at 1 and 6 h post infection, survival on day 9, hybrid molecules formulated in water as their bis(hydrochloride) salt, read-out: ED50",0.37 mg/kg
"O=C(CCNc1ccnc2cc(Cl)ccc12)NC[C@H]1CN(c2ccc(N3CCOCC3)c(F)c2)C(=O)O1 [PA 1185, (5S)-3-(7-Chloroquinolin-4-ylamino)-N-[3-(3-fluoro-4-morpholin-4-yl-phenyl)-2-oxo-oxazolidin-5-ylmethyl]-propionamide]",MIC,[1]; [17],1.25 µg/mL
same,MIC,C. difficile CIP 104282; [18],0.16 µg/mL
"Cl.O=C(O)c1cn(C2CC2)c2cc(N3CCN(c4ccnc5cc(C(F)(F)F)ccc45)CC3)c(F)cc2c1=O [PA 1284, 1-Cyclopropopyl-6-fluoro-4-oxo-7-[4-(7-trifluoromethylquinolin-4-yl)-piperazin-1-yl]-1,4-dihydroquinoline-3-carboxylic acid hydrochloride salt]",MIC,[2]; [20],0.156 µg/mL
same,MIC,S. pneumoniae PRSP,0.039 µg/mL
same,MIC,[6],0.625 µg/mL
same,MIC,H. influenzae CIP 102514; [24],0.625 µg/mL
same,MIC,E. coli CIP 54127,1.25 µg/mL
same,MIC,P. aeruginosa CIP 103467,> 5 µg/mL
same,MIC,[16],0.625 µg/mL
"Cl.O=C(O)c1cn(C2CC2)c2cc(N3CCN(c4ccnc5c(Cl)cccc45)CC3)c(F)cc2c1=O [PA 1285, 7-[4-(8-Chloroquinolin-4-yl)-piperazin-1-yl]-1-cyclopropopyl-6-fluoro-4-oxo-1,4-dihydroquinoline-3-carboxylic acid hydrochloride salt]",MIC,[2]; [20],0.02 µg/mL
same,MIC,S. pneumoniae PRSP,0.039 µg/mL
same,MIC,[6],0.156 µg/mL
same,MIC,H. influenzae CIP 102514; [24],0.312 µg/mL
same,MIC,E. coli CIP 54127,0.625 µg/mL
same,MIC,P. aeruginosa CIP 103467,> 5 µg/mL
same,MIC,[16],0.156 µg/mL
"CC[C@H]1NC(=O)[C@@H](NC(=O)c2ncccc2O)[C@@H](C)OC(=O)[C@H](c2ccccc2)NC(=O)[C@@H]2CC(=O)CCN2C(=O)[C@H](Cc2ccc(N(C)C)cc2)N(C)C(=O)[C@@H]2CCCN2C1=O [Pristinamycin IA, reference compound] ({Picolinoyl(3-OH)}-T[dAbu]P[NMePhe(4-NMe2)][Pip(4-oxo)][Phg]; ester 1-C)",MIC,[2]; S. aureus MSSA CIP 4.83,2.5 µg/mL
same,MIC,[8]; S. aureus MRSA clinical isolate,5 µg/mL
same,MIC,[1]; S. pneumoniae PSSP CQI 201,0.31 µg/mL
same,MIC,S. pyogenes CIP 56.41T; S. pyogenes CIP 56.41T,1.25 µg/mL
"CN[C@H](CC(C)C)C(=O)N[C@H]1C(=O)N[C@@H](CC(N)=O)C(=O)N[C@H]2C(=O)N[C@H]3C(=O)N[C@H](C(=O)N[C@H](C(=O)O)c4cc(O)cc(O)c4-c4cc3ccc4O)[C@H](O)c3ccc(c(Cl)c3)Oc3cc2cc(c3O[C@@H]2O[C@H](CO)[C@@H](O)[C@H](O)[C@H]2O[C@H]2C[C@](C)(N)[C@H](O)[C@H](C)O2)Oc2ccc(cc2Cl)[C@H]1O [Vancomycin, reference compound]",MIC,[2]; Staphylococcus aureus,0.78 µg/mL
same,MIC,"[8]; Staphylococcus aureus, MRSA",0.78 µg/mL
same,MIC,S. aureus MsrA PUL 5054,0.75 µg/mL
same,MIC,[9],1.56 µg/mL
same,MIC,[10],1.56 µg/mL
same,MIC,[11],0.78 µg/mL
same,MIC,[1]; Streptococcus pneumoniae,0.2 µg/mL
same,MIC,[12]; PRSP,0.39 µg/mL
same,MIC,"S. pyogenes CIP 56.41T; Streptococcus pyogenes, CIP56",0.2 µg/mL
same,MIC,[13],> 50 µg/mL
same,MIC,[14],> 50 µg/mL
same,MIC,[15],25 µg/mL
same,MIC,C. difficile CIP 104282,0.31 µg/mL
same,ED50,[7],0.16 mg/kg
